Earlier results in patent publication US20140199405A1, “METHOD FOR TREATING CANCER BASED ON MUTATION STATUS OF K-RAS” (priority 2013, published 2014).

Columns and labels:
[1] = test system: locally advanced pancreatic cancer; settings: patients with locally advanced pancreatic cancer
pancreatic cancer = settings: combination versus gemcitabine monotherapy

Row | Compound | median overall survival [1] | median time to disease progression [1] | median overall survival (pancreatic cancer) | median progression free survival (pancreatic cancer)
1 | O=c1[nH]cc(F)c(=O)[nH]1 [5-FU, 5-fluororuracil] | 4.2 months | 0.9 months |  | 
2 | Nc1ccn([C@@H]2O[C@H](CO)[C@@H](O)C2(F)F)c(=O)n1 [gemcitabine] | 5.7 months | 2.1 months | 6.0 months | 3.5 months
